Test results as given in patent US20230285516A1 (priority 2020, published 2023).

Experiments:
Assay type in all cases: cell-based, human
Foxp3 = Foxp3 gene expression in co-cultured tissues (RT-PCR); conditions: vs control
Source text: (§1) FIG. 7. Effect of type I polymerized collagen on the gene expression of pro- and anti-inflammatory cytokines and factors in the tissues of cartilage and synovial tissue co-cultures of patients with rheumatoid arthritis (RA). (A) Quantification of TNF-α, IL-6 and IL-10 gene expression and (B) Quantification of IL-23 and Foxp3 gene expression by RT-PCR in synovial membrane tissues and cartilage co-cultured for 7 days. The bars show the mean±SD of the transcript levels of the samples normalized through the expression of the housekeeping gene GADPH determined by 2ΔΔCt. The data represent the mean±SD of 9 cartilage and synovial co-cultures from RA patients. Each culture was performed in triplicate for each condition. Basal: tissue in basal conditions.
FIG. 8. Effect of type I polymerized collagen on the gene expression of pro- and anti-inflammatory cytokines and factors in the tissues of cartilage and synovial co-cultures of patients with Osteoarthritis (OA). (A) Quantification of IL-1β, INF-α, IL-6 and IL-10 gene expression, (B) IL-23 and Foxp3 by RT-PCR in co-cultured cartilage and synovial membrane tissues for 7 days. The bars show the mean±SD of the transcript levels of the samples normalized through the expression of the housekeeping gene GADPH determined by 2ΔΔCt. The data represent the mean±SD of 8 co-cultures from patients with OA. […]

IL-1β = IL-1β in co-culture supernatants (ELISA); conditions: RA or OA co-cultures, day 7 of culture
Experimental: (§2) Cartilage and synovium co-cultures were performed from 9 patients with RA and 8 patients with OA who underwent hip or knee replacement (Table 1). Joint tissue was cultured with (a) RPMI (control), (b) 1% type I polymerized collagen, for 7 days. The supernatants and tissues of days 1 and 7 were […] collected. In the culture supernatants the concentration of IL-1β, IL-8, IL-10, IL-12, TNF-α and IFN-γ was quantified by ELISA and the results were normalized with total protein concentration. The expression of IL-1β and TNF-α was evaluated using histochemistry.
(§3) FIG. 3. Effect of type I polymerized collagen on IL-1β expression in supernatants of cartilage and synovium co-cultures from patients with rheumatoid arthritis (RA) or osteoarthritis (OA). The data represent the mean±SD of 9 co-cultures of cartilage and synovial tissue from patients with RA and of 8 co-cultures of patients with OA. Each culture was performed in triplicate for each condition. The results were normalized with the total protein concentration of the supernatant, determined by the Folin-Lowry micromethod. AR: left panel. OA: panel on the right. Basal: tissue in basal conditions.

IL-8 = IL-8 in co-culture supernatants (ELISA); conditions: tissue co-cultures from RA patients
Experimental: as §2
as §3, with “5.” for “3.”, “IL-8” for “IL-1β”, “synovial tissue” for “synovium”, “synovium” for “synovial tissue”, “Folin-Löwry” for “Folin-Lowry”

IL-23 = IL-23 gene expression in co-cultured tissues (RT-PCR); conditions: co-cultures from patients with RA, vs control
Source text: as §1

collagen-polyvinylpyrrolidone [type I polymerized collagen]
gene expression of Foxp3 (Foxp3; co-cultures from patients with OA): positive regulation | transcription of FOXP3 gene (Foxp3; co-cultures from patients with RA): positively | expression of IL-1β vs. the controls in the supernatants (IL-1β): decreased | concentration of IL-8 in the supernatants of the co-cultures (IL-8): greatest decrease | transcription of IL-23 gene (IL-23): negatively regulated
